The values that follow are results of earlier work, collected in US20260263393A1, “CO[…], […] COMBINATION WITH N-ACYLETHANOLAMINES, AND USES THEREOF” (Clearmind Labs Corp., priority 2023, published 2026).

The conditions of the data set: ibogaine administered to treat drug dependence.

For `CC[C@H]1CC2C[C@H]3c4[nH]c5ccc(OC)cc5c4CC[N@@](C2)C13` [ibogaine, Ibogaine], the “reduction in drug craving (duration)” value is “up to several weeks” and the “sustained resolution of the withdrawal syndromes (time to)” value was 12 to 18 h.
